We go through three molecules from paper PMC2796602 (Journal of the American Chemical Society, 2009).

Structures can show the parent of a compound that is named as a salt. No end group written: not given here.

For assay [1], the system named is hypoxia-induced gene expression in MCF7 cells. The experiment in a line: Gene expression profiling with Affymetrix Human Gene ST 1.0 microarrays. In kind it is cell-based. To be noted: 300 μM DFO.
Assay [2] concerns the target GST-tagged CH1 domain of human p300 (aa residues 323-423) (Homo sapiens, UniProt Q09472). The assay can be described thus: SPR binding to immobilized p300-CH1-GST.
Another assay has as its target p300-CH1-GST fusion (Homo sapiens, UniProt Q09472). The experiment in a line: CD spectroscopy of p300-CH1-GST fold. To be noted: CD spectra.
For assay [3], the target named is p300-CH1-GST/HIF-1α C-TAD complex (Homo sapiens, UniProt Q09472). The assay can be described thus: Fluorescence polarization competition assay. Type of assay: binding.
Another assay has as its system MCF7 cells. The experiment in a line: Cell viability assay. To be noted: Homo sapiens, MCF7, 24 h. Type of assay: cell-based.
A further assay relates to HIF-1α levels in cells. The assay can be described thus: Western blot of HIF-1α levels. In kind it is cell-based, human. The conditions noted are these: 200 nM, 300 μM DFO.
The next assay has as its system mice. The conditions noted are these: cited from earlier work.
Assay [4] concerns the target p300-CH1-GST fusion protein (GST-tagged CH1 domain of human p300, aa residues 323-423) (human, UniProt Q09472 323-423). The experiment in a line: fluorescence polarisation.

GST-tagged CH1 domain of human p300 (aa residues 323-423), sequence (Q09472 323-423): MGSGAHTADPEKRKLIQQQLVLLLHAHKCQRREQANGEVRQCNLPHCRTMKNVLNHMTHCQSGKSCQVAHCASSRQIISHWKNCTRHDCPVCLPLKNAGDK
p300-CH1-GST fusion, sequence (Q09472 323-423): as above
p300-CH1-GST fusion protein (GST-tagged CH1 domain of human p300, aa residues 323-423), sequence (Q09472 323-423): as above
p300-CH1-GST/HIF-1α C-TAD complex, sequence (Q09472 323-423, one chain of several): as the sequence (Q09472 323-423) above

Regarding `CC(=O)N(O)CCCCCNC(=O)CCC(=O)N(O)CCCCCNC(=O)CCC(=O)N(O)CCCCCN` [DFO, desferrioxamine mesylate], in assay [1], the “number of transcripts affected (2-fold or more) by DFO treatment alone” value is listed as 580 and the “number of transcripts induced by at least 4-fold (P < 0.01)” value is listed as 43.
As for `CN1C(=O)[C@]2(Cc3cn([C@]45C[C@@]67SS[C@@](CO)(C(=O)N6[C@H]4Nc4ccccc45)N(C)C7=O)c4ccccc34)SS[C@@]1(CO)C(=O)N2C` [compound 2, chetomin], in assay [2], the Kd amounted to 540 nM. For the same molecule, the “off-rate (Kd)” value in assay [2] (SPR, 100 μM DTT) was 0.0033 s⁻¹. In addition, on p300-CH1-GST fusion, the “concentration causing structural changes / unfolding of p300-CH1-GST” value worked out at 1 µM. Besides, the IC50 in assay [3] worked out at 540 ± 180 nM. Also, the GI50 with MCF7 cells was determined as 180 ± 40 nM. In addition, the “levels of HIF-1α in hypoxic cells” value with HIF-1α levels in cells is reported as “remained constant”. Also, the “effect on vascularization in mice” value in the assay on mice was “inhibit vascularization in mice”.
On to SMDESGLPQLTSYDCEVNAPIQGSRNLLQGEELLRALDQVN (peptide, UniProt Q16665 786-826, looked up, also: fluorescein label, position not given here) [fluorescein-labeled C-TAD domain of human HIF-1α (residues 786-826)], for which the binding result in assay [4] is “binds”.
